Assay [1] deals with T1, Nox4 (Homo sapiens, UniProt Q9NPH5).
T1 construct: expressed in transfected cells; host or cells: HEK293 Nox4-11 cells
T1 sequence (Q9NPH5 1-578): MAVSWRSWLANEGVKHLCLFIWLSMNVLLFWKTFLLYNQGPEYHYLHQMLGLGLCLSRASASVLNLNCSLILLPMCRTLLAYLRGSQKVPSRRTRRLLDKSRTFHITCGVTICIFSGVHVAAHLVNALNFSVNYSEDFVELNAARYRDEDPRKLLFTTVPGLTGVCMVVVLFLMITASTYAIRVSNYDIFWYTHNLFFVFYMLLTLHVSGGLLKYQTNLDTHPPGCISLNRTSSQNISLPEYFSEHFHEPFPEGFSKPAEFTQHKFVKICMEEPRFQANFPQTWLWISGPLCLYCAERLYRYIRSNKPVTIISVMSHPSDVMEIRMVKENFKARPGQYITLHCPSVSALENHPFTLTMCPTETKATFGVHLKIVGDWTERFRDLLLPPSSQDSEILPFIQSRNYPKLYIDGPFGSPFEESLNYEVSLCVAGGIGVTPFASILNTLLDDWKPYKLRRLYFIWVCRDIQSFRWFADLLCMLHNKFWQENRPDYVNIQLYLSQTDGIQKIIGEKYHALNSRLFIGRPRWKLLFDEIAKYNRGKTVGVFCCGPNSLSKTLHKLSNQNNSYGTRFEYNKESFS
T1 sequence (P13498 2-195 partner limits assumed): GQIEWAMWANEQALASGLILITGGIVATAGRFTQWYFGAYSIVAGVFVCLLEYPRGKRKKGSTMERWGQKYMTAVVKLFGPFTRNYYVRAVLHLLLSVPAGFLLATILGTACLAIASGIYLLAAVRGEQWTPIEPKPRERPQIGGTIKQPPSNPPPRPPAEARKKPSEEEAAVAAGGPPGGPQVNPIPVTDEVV
As to the kind of experiment: H2O2 production, homovanillic acid assay, HEK293 Nox4-11 cells. It counts as cell-based. The following applies: 1 hour 37° C. On the procedure: After 1 hour incubation at 37° C., the reaction was stopped and H2O2 production was measured using the homovanillic acid assay. The ability of these drugs to inhibit production of H2O2 is shown as a percentage relative to the untreated control (100%). […] Optimal Nox2 activity requires phorbol 12-myristate 13-acetate stimulation whereas Nox4 activity is constitutive.
H2O2 release was measured using the homovanillic acid assay as described previously (Martyn, 2006). Briefly, 1.5-1.75×10^5 cells/well of a 12-well plate were seeded. The following day, cells were washed once with Hank's balanced salt solution and then preincubated for 15 minutes with either gentian violet (10-20 nM) or brilliant green (0.5-1.0 μM) in 1 ml of media. The cells were then washed once with Hank's balanced salt solution. Gentian violet or brilliant green was added at the same concentrations as in pretreatment to 0.5 ml of homovanillic acid assay solution (100 μM homovanillic acid assay, 4 U/ml horseradish peroxidase in Hank's balanced salt solution with Ca^2+ and Mg^2+) and incubated with the cells for 1 hour at 37° C. Cos-phox cells were additionally stimulated with 0.4 μg/ml phorbol 12-myristate 13-acetate. […] Fluorescence was read on a BioTek Synergy HT (BioTek Instruments Inc., Winooski, Vermont, […].) with an excitation of 320 nm and emission of 440 nm.

The subject of assay [2] is ang-2 mRNA. The assay can be described thus: Quantitative reverse transcription-PCR for ang-2 in bEnd.3 cells. The following applies: 6.5 hours. It counts as cell-based, murine. On the procedure:
bEnd.3 cells were seeded equally into six T-75 flasks and 24 hours later were treated with 0, 1, 5, 10, 15, and 20 μM concentrations of gentian violet (Sigma-Aldrich, no. G2039) in ethanol for 6.5 hours. RNA was extracted and purified using TRI reagent (Sigma-Aldrich, T9424) and measured using spectrophotometer (Perkin-Elmer UV/VIS, Wellesley, Mass.). RNA (1 μg) was used for DNase Amplification (Invitrogen, no. 18068-015, Carlsbad, Calif.) followed by first-strand synthesis for reverse transcription-PCR (Invitrogen SuperScript, no. 12371-019). 96-well Optical Reaction Plate (ABI PRISM, no. 128, Applied Biosystems, Foster City, Calif.) was used for the reverse transcription-PCR reaction. A measure of 2.5 μl of template, which had been diluted 1:10 in crosslinked water, was used in each well and the experiment was performed in triplicate. Ang pt2 (Applied Biosystems, Taqman Gene Expression Assay, Mm00545822_ml) and 18S (Applied Biosystems Taqman Gene Expression Assay, Hs99999901_sl) primers were used along with crosslinked molecular grade water (Cellgro, Mediatech, Inc., Herndon, Va.) and master mix (Applied Biosystems TaqMan Fast Universal PCR Master Mix (2^x)). The reaction was run on the 7900 Applied Biosystems Reader for Absolute Quantification for 96-well plates. C values were analyzed by ΔΔCt method, and the standard error of the mean was calculated (FIG. 3b). The same protocol was used for treatment with brilliant green (Sigma, no. B6756), except that the concentrations used were 0, 0.1, 0.25, 0.5, and 0.75 μM (FIG. 3a).

Assay [3] relates to P. falciparum Dd2 (Multidrug Resistant). The assay can be described thus: Malaria model, multidrug resistant P. falciparum. The assay is classed as cell-based. The following applies: Plasmodium falciparum, DD2; read-out: IC50 (nM) vs P. falciparum Dd2 (Multidrug Resistant). On the procedure: The compounds were tested in a malaria model using both chloroquine sensitive and multidrug resistant P. falciparum. The malaria model was the same as published in JAC Advance Access published online on Jul. 30, 2008, Journal of Antimicrobial Chemotherapy, doi:10.1093/jac/dkn315, the contents of which are hereby incorporated by reference, and the data is summarized in the table below.
Briefly, the assay involves exposing both chloroquine sensitive and multidrug resistant P. falciparum to the compounds. After one hour of exposure to the highest concentration of the compound, followed by removal of the compound, the growth of all stages of P. falciparum was observed. The reduction in the growth stages was then compared with untreated control parasites. […] The presence of strong inhibition (defined herein as 10% growth) of all parasite stages was evaluated when the parasites were exposed to various concentrations of various compounds.

Assay [4] can be described thus: ESR spectrum with superoxide dismutase. The following applies: room temperature ESR, conditions as in Li et al. On the procedure:
Li used ESR to confirm the production of NADPH-dependent.O2—by isolated endosomes (Li et al., Molecular and Cellular Biology, January 2006, p. 140-154, 26(1):140-154 (2006)). ESR assays were conducted at room temperature using a Bruker model EMX ESR spectrometer (Bruker). Vesicular fractions from each sample were mixed with the spin trap, 50 mM 5,5-dimethyl-1-pyrroline N-oxide (DMPO), in a total volume of 500 μl of PBS, pH 7.4. This solution contained iminodiacetic acid-chelating resin (10 ml/liter; Sigma-Aldrich). The reaction was initiated by adding NADPH to 100 μM and was immediately placed into the ESR spectrometer. DMPO-hydroxyl radical adduct formation was assayed for 10 min. Instrument settings were as follows: receiver gain, 1×10^6; modulation frequency, 100 kHz; microwave power, 40.14 mW; modulation amplitude, 1.0 G; and sweep rate, 1 G/s.

Results on one molecule are retold here after patent US9358226B2, “Triarylmethane analogs and their use in treating cancers” (Emory University, priority 2007, dated 2016).

As to `CN(C)c1ccc(C(=C2C=CC(=[N+](C)C)C=C2)c2ccc(N(C)C)cc2)cc1` [Gentian Violet (GV), hexamethyl pararosaniline chloride], the “inhibition of Nox4 activity (H2O2 production)” value in assay [1] is “inhibited”. For the same molecule, the “ang2 expression compared to control” value in assay [2] (1 and 5 μM) is on record as “increased”. Moreover, the “inhibition of ang-2 mRNA” value in assay [2] (higher concentrations (above 5 μM, up to 20 μM)) is 70-90%. Further, the IC50 in assay [3] was 0.44 nM. Besides, the “radical formation with superoxide (ESR)” value in assay [4] is “appear to form a radical by reacting with superoxide”.
